Data taken from PMC2903893 (Journal of the American Chemical Society, 2009).
Like-named read-outs stand apart in the source and are kept apart here.

Key:
[1] = system: PKC; details: read-out: PKC IC50, cited from earlier work
[2] = system: PKA; details: read-out: PKA IC50; cited from earlier work
[3] = system: PPK; details: read-out: PPK IC50; cited from earlier work
[4] = biological target: protein kinase C (PKC); format: biochemical; details: read-out: PKC IC50; whole enzyme with regulatory and catalytic domains
[5] = system: JHU-012 Head&Neck; assay: Cancer cell growth inhibition with and without light, JHU-012; format: cell-based; details: JHU-012, with vs without light exposure
[6] = system: nine cancer cell lines; assay: cells; format: cell-based
[7] = format: physicochemical; details: 65 °C
[8] = Absorption of the perylenequinone chromophore; format: physicochemical
[9] = cited from earlier work
[10] = system: PKCβI; details: read-out: PKCβI IC50; ref 29 (ruboxistaurin), 30 (enzastaurin); cited from earlier work
[11] = system: PKCβII; details: read-out: PKCβII IC50; ref 29 (ruboxistaurin), 30 (enzastaurin); cited from earlier work

In the case of `COc1c(O)c2c(=O)cc(OC)c3c4c(OC)cc(=O)c5c(O)c(OC)c(CC(C)O)c(c(c1CC(C)O)c23)c54` (single isomer, unassigned; (-)) [(−)-1, Calphostin D], the IC50 ([1]; Table 3 footnote a, ref [23]) is listed as 6400 nM.
For `COc1c(O)c2c(=O)cc(OC)c3c4c(OC)cc(=O)c5c(O)c(OC)c(CC(C)OC(=O)c6ccccc6)c(c(c1CC(C)OC(=O)c1ccccc1)c23)c54` (stereo not shown) [1a, calphostin A], the IC50 ([1]; ref 22b) is given as 250 nM.
For `COc1c(C[C@@H](C)OC(=O)Oc2ccc(O)cc2)c2c3c(C[C@@H](C)OC(=O)c4ccccc4)c(OC)c(=O)c4c(O)cc(OC)c(c5c(OC)cc(O)c(c1=O)c52)c43` [1c, Calphostin C, reference compound], the IC50 [1] is listed as 50 to 460 nM, the IC50 [2] is listed as over 100000 nM and the IC50 [3] is listed as over 100000 nM.
With `COc1c(CC(C)O)c2c3c(CC(C)O)c(OC)c(=O)c4c(O)cc5c(c6c(cc(O)c(c1=O)c62)OCO5)c43` (stereo not shown) [compound 3, Cercosporin] the IC50 [4] was 600 nM, the photopotentiation [5] was 4.9 fold and the CC50 ([6]; read-out: CC50 across the series of cell lines) was 120 to 270 nM. The “ΔG^‡ atropisomerization” value ([7]; DMSO) was 28.2 kcal/mol, the “ΔG^‡ atropisomerization” value ([7]; benzene) was 27.4 (benzene) kcal/mol and the “ΔG^‡ atropisomerization” value ([7]; benzene, listed as cercosporin) was 27.4 kcal/mol. For the same molecule, the “ε^670” value [8] was 160 M⁻¹ cm⁻¹, the IC50 [1] was 600 to 1300 nM and the IC50 [2] was over 500000 nM. The IC50 [3] was over 180000 nM, the “atropisomerization t1/2” value ([9]; 60 °C, DMSO) was 48 h and the “ΔG^‡ atropisomerization” value ([9]; acetylacetone) was 27.0[5] (acetylacetone) kcal/mol.
For `COc1c2c3c4c(c(OC)c(=O)c5c(O)cc(OC)c(c6c(OC)cc(O)c(c1=O)c63)c54)[C@@H](C(C)=O)[C@@](C)(O)C2` [compound 4, Hypocrellin A], the IC50 [4] was 4500 nM and the “growth inhibition, hypocrellin A (4) compared with hypocrellin (ent-4)” value [6] was “nearly identical activity”.
In the case of `Cn1cc(C2=C(c3cn(C4CCN(Cc5ccccn5)CC4)c4ccccc34)C(=O)NC2=O)c2ccccc21` [enzastaurin], the IC50 [10] is given as 30 nM and the IC50 [11] is given as 30 nM.
In the case of `CN(C)C[C@@H]1CCn2cc(c3ccccc32)C2=C(C(=O)NC2=O)c2cn(c3ccccc23)CCO1` [ruboxistaurin], the IC50 [10] is given as 4.7 nM and the IC50 [11] is given as […].
Work on Hypocrellin [ent-4] yielded an IC50 [4] of 400 nM.
